Test results from publication PMC6429214, “Design, Synthesis and Biological Evaluation of Isoxazole-Based CK1 Inhibitors Modified with Chiral Pyrrolidine Scaffolds” (Molecules, 2019).

Assays:
Test in all cases: 33PanQinase panel
Type in all cases: biochemical
ACV-RL1 = molecular target: T1, ACV-RL1 (Homo sapiens, UniProt P37023); details: ACV-RL1, 1 µM; read-out: Residual Activity (%)
T1 construct: purchased ProQinase
Description: (§1) Figure 5 Dendrogram representation of the selectivity profile of 29d at a concentration of 1 μM in a panel of 320 wild-type kinases (ProQinase, Freiburg, Germany). The residual kinase activity was determined compared to DMSO control. Images were generated using TREEspot Software Tool, DISCOVERX CORPORATION 2010. […]
(§2) Table S2. Selectivity profile of compound 29d. The inhibitor has been screened at a concentration of 1 µM over a panel of 320 wild-type protein kinases by ProQinase GmbH (Freiburg, Germany) using an activity-based radiometric 33PanQinase® assay. Results are presented as percentage of residual kinase activity relative to […]
(§3) control. The final DMSO concentration was 1 % in each reaction-mix. Classification of protein kinase families refers to Manning et al. (Manning, G.; Whyte, D. B.; Martinez, R.; Hunter, T.; Sudarsanam, S. The Protein Kinase Complement of the Human Genome. Science 2002, 298, 1912–1934): AGC = containing PKA, PKG, PKC families; […] = containing Cdk, MAPK, GSK3, CLK families; STE = homologs of yeast sterile 7, sterile 11, sterile 20 kinases; TK = tyrosine kinase; TKL = tyrosine kinase-like.
(§4) Kinase name Kinase family Residual Activity (%)

AMPK-alpha1 aa1-550 = molecular target: T2, AMPK-alpha1 aa1-550 (Homo sapiens, UniProt Q13131); details: AMPK-alpha1 aa1-550, 1 µM; read-out: Residual Activity (%)
T2 construct: purchased ProQinase
Description: as §1, §2, §3, §4

Aurora-B = molecular target: T3, Aurora-B (Homo sapiens, UniProt Q96GD4); details: read-out: Residual Activity (%)
T3 construct: purchased ProQinase
Description: as §1, §2, §3, §4

BMX = molecular target: T4, BMX (Homo sapiens, UniProt P51813); details: read-out: Residual Activity (%)
T4 construct: purchased ProQinase
Description: as §1, §2, §3, §4

BTK = molecular target: T5, BTK (Homo sapiens, UniProt Q06187); details: read-out: Residual Activity (%)
T5 construct: purchased ProQinase
Description: as §1, §2, §3, §4

CDK1/CycA2 = molecular target: T6, CDK1/CycA2 (Homo sapiens, UniProt P06493); details: CDK1/CycA2, 1 µM; read-out: Residual Activity (%)
T6 construct: purchased ProQinase
Description: as §1, §2, §3, §4

CDK2/CycE1 = molecular target: T7, CDK2/CycE1 (Homo sapiens, UniProt P24941); details: CDK2/CycE1, 1 µM; read-out: Residual Activity (%)
T7 construct: purchased ProQinase
Description: as §1, §2, §3, §4

CDK6/CycD1 = molecular target: T8, CDK6/CycD1 (Homo sapiens, UniProt Q00534); details: CDK6/CycD1, 1 µM; read-out: Residual Activity (%)
T8 construct: purchased ProQinase
Description: as §1, §2, §3, §4

CLK3 = molecular target: T9, CLK3 (Homo sapiens, UniProt P49761); details: CLK3, 1 µM; read-out: Residual Activity (%)
T9 construct: purchased ProQinase
Description: as §1, §2, §3, §4

EEF2K = molecular target: T10, EEF2K (Homo sapiens, UniProt O00418); details: read-out: Residual Activity (%)
T10 construct: purchased ProQinase
Description: as §1, §2, §3, §4

EGF-R = molecular target: T11, EGF-R (Homo sapiens, UniProt P00533); details: read-out: Residual Activity (%)
T11 construct: purchased ProQinase
Description: as §1, §2, §3, §4

EPHA5 = molecular target: T12, EPHA5 (Homo sapiens, UniProt P54756); details: EPHA5, 1 µM; read-out: Residual Activity (%)
T12 construct: purchased ProQinase
Description: as §1, §2, §3, §4

GRK2 = molecular target: T13, GRK2 (Homo sapiens, UniProt P25098); details: GRK2, 1 µM; read-out: Residual Activity (%)
T13 construct: purchased ProQinase
Description: as §1, §2, §3, §4

GRK4 = molecular target: T14, GRK4 (Homo sapiens, UniProt P32298); details: GRK4, 1 µM; read-out: Residual Activity (%)
T14 construct: purchased ProQinase
Description: as §1, §2, §3, §4

GSG2 = molecular target: T15, GSG2 (Homo sapiens, UniProt Q8TF76); details: GSG2, 1 µM; read-out: Residual Activity (%)
T15 construct: purchased ProQinase
Description: as §1, §2, §3, §4

HIPK3 = molecular target: T16, HIPK3 (Homo sapiens, UniProt Q9H422); details: HIPK3, 1 µM; read-out: Residual Activity (%)
T16 construct: purchased ProQinase
Description: as §1, §2, §3, §4

IKK-beta = molecular target: T17, IKK-beta (Homo sapiens, UniProt O14920); details: read-out: Residual Activity (%)
T17 construct: purchased ProQinase
Description: as §1, §2, §3, §4

IKK-epsilon = molecular target: T18, IKK-epsilon (Homo sapiens, UniProt Q14164); details: read-out: Residual Activity (%)
T18 construct: purchased ProQinase
Description: as §1, §2, §3, §4

IRAK1 = molecular target: T19, IRAK1 (Homo sapiens, UniProt P51617); details: IRAK1, 1 µM; read-out: Residual Activity (%)
T19 construct: purchased ProQinase
Description: as §1, §2, §3, §4

ITK = molecular target: T20, ITK (Homo sapiens, UniProt Q08881); details: read-out: Residual Activity (%)
T20 construct: purchased ProQinase
Description: as §1, §2, §3, §4

LIMK2 = molecular target: T21, LIMK2 (Homo sapiens, UniProt P53671); details: LIMK2, 1 µM; read-out: Residual Activity (%)
T21 construct: purchased ProQinase
Description: as §1, §2, §3, §4

MEK1 = molecular target: T22, MEK1 (Homo sapiens, UniProt Q02750); details: MEK1, 1 µM; read-out: Residual Activity (%)
T22 construct: purchased ProQinase
Description: as §1, §2, §3, §4

MKNK2 = molecular target: T23, MKNK2 (Homo sapiens, UniProt Q9HBH9); details: MKNK2, 1 µM; read-out: Residual Activity (%)
T23 construct: purchased ProQinase
Description: as §1, §2, §3, §4

MLK4 = molecular target: T24, MLK4 (Homo sapiens, UniProt Q5TCX8); details: MLK4, 1 µM; read-out: Residual Activity (%)
T24 construct: purchased ProQinase
Description: as §1, §2, §3, §4

[1] = molecular target: T25, RAF1 Y340D/Y341D (untagged)** (Homo sapiens, UniProt P04049, Y340D/Y341D); details: read-out: Residual Activity (%)
T25 construct: purchased ProQinase
Description: as §1, §2, §3, §4

S6K = molecular target: T26, S6K (Homo sapiens, UniProt P23443); details: read-out: Residual Activity (%)
T26 construct: purchased ProQinase
Description: as §1, §2, §3, §4

SNARK = molecular target: T27, SNARK (Homo sapiens, UniProt Q9H093); details: read-out: Residual Activity (%)
T27 construct: purchased ProQinase
Description: as §1, §2, §3, §4

STK39 = molecular target: T28, STK39 (Homo sapiens, UniProt Q9UEW8); details: STK39, 1 µM; read-out: Residual Activity (%)
T28 construct: purchased ProQinase
Description: as §1, §2, §3, §4

TRK-C = molecular target: T29, TRK-C (Homo sapiens, UniProt Q16288); details: read-out: Residual Activity (%)
T29 construct: purchased ProQinase
Description: as §1, §2, §3, §4

TTBK2 = molecular target: T30, TTBK2 (Homo sapiens, UniProt Q6IQ55); details: TTBK2, 1 µM; read-out: Residual Activity (%)
T30 construct: purchased ProQinase
Description: as §1, §2, §3, §4

T6 sequence (P06493 whole entry): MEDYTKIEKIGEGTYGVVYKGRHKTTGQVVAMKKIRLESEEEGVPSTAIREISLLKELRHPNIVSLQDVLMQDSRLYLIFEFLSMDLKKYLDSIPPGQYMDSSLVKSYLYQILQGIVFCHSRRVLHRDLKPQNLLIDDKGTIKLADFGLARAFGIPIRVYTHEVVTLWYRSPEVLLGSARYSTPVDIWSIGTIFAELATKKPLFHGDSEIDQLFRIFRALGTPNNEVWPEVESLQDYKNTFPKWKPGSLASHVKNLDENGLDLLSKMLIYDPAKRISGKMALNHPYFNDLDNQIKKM
T6 sequence (P20248 whole entry partner): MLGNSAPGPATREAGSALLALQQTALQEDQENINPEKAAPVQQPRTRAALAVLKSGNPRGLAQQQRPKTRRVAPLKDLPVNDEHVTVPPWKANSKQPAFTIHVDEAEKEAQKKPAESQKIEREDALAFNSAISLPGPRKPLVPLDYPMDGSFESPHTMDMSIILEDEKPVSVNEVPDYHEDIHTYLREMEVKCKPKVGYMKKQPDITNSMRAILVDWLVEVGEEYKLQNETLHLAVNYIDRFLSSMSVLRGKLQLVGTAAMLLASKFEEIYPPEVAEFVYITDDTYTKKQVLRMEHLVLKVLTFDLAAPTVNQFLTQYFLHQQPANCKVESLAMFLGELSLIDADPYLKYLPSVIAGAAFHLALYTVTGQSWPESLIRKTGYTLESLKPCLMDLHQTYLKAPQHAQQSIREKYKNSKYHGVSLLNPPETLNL
T12 sequence (P54756 25-1037): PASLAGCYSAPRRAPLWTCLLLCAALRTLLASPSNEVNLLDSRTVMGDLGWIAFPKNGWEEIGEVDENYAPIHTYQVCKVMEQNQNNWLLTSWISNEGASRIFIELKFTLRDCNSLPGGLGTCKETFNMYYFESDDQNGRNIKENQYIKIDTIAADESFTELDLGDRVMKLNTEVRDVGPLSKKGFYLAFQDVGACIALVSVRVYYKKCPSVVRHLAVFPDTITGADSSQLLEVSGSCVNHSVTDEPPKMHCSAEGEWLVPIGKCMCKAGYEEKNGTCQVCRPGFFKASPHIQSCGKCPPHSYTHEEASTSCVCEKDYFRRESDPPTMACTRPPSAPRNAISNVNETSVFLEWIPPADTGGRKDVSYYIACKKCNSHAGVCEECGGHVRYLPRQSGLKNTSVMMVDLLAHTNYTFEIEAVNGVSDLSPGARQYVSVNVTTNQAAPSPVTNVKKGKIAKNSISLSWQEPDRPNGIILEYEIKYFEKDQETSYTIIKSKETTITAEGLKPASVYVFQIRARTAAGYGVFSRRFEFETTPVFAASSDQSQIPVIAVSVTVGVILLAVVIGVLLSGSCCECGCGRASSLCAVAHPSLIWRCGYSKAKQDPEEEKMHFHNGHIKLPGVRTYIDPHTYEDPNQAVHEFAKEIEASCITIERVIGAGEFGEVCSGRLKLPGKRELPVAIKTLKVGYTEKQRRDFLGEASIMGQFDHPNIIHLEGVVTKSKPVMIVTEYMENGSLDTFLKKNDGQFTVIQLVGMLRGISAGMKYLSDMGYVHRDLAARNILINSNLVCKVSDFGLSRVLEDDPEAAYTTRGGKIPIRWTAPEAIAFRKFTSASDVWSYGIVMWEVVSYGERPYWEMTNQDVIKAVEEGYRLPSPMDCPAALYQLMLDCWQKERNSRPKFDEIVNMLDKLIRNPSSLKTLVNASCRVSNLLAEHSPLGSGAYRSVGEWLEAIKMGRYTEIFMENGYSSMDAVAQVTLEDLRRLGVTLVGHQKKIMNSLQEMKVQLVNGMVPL
T4 sequence (P51813 whole entry): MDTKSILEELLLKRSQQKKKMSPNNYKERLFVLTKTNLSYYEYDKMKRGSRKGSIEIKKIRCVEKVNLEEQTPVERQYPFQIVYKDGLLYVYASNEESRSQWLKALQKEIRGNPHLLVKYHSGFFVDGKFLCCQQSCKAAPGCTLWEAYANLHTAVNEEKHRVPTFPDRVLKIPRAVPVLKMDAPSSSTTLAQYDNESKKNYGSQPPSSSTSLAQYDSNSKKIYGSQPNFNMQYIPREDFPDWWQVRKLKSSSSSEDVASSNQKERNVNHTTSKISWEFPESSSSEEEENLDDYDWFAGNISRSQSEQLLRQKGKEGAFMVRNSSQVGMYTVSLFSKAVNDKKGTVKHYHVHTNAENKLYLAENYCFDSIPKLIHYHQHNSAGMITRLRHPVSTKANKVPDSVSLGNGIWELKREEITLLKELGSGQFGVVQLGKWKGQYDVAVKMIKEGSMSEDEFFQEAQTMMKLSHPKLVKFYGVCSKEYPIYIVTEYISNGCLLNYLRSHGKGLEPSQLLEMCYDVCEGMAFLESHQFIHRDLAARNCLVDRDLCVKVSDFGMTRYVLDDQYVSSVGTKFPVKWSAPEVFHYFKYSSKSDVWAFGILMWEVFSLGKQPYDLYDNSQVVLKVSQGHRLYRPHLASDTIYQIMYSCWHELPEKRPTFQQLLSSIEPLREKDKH
T15 sequence (Q8TF76 whole entry): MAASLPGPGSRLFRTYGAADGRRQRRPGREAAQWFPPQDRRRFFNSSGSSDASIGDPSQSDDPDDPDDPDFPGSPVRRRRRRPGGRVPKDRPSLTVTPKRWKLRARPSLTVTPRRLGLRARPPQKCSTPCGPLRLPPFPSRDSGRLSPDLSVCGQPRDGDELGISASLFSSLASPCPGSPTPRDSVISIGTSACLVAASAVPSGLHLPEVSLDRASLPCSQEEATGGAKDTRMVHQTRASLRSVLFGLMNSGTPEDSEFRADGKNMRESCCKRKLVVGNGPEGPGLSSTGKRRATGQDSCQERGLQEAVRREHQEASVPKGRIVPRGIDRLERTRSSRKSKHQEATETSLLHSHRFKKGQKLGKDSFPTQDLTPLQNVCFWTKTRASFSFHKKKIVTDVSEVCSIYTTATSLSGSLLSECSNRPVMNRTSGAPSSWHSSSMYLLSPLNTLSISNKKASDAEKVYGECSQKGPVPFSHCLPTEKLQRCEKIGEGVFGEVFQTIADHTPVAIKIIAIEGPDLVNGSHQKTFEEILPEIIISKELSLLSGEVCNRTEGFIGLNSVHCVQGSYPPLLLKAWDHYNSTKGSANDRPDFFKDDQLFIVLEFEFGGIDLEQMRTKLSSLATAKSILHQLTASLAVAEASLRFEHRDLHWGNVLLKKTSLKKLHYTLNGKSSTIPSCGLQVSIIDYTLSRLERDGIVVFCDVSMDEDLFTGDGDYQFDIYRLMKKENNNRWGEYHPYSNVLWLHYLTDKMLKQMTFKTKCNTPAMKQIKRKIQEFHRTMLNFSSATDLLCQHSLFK
T23 sequence (Q9HBH9 whole entry): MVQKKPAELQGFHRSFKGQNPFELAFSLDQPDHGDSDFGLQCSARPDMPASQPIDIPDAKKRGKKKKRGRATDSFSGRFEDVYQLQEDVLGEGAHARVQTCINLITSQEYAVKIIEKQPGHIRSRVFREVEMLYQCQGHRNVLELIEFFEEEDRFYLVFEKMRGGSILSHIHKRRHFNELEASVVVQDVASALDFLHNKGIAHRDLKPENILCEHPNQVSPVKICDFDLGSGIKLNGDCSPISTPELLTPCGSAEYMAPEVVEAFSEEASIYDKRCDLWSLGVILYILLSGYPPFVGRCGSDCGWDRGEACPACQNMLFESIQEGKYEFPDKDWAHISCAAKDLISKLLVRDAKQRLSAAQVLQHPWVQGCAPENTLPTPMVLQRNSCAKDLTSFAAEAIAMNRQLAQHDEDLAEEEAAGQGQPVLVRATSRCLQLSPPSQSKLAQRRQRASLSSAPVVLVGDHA
T29 sequence (Q16288 32-839): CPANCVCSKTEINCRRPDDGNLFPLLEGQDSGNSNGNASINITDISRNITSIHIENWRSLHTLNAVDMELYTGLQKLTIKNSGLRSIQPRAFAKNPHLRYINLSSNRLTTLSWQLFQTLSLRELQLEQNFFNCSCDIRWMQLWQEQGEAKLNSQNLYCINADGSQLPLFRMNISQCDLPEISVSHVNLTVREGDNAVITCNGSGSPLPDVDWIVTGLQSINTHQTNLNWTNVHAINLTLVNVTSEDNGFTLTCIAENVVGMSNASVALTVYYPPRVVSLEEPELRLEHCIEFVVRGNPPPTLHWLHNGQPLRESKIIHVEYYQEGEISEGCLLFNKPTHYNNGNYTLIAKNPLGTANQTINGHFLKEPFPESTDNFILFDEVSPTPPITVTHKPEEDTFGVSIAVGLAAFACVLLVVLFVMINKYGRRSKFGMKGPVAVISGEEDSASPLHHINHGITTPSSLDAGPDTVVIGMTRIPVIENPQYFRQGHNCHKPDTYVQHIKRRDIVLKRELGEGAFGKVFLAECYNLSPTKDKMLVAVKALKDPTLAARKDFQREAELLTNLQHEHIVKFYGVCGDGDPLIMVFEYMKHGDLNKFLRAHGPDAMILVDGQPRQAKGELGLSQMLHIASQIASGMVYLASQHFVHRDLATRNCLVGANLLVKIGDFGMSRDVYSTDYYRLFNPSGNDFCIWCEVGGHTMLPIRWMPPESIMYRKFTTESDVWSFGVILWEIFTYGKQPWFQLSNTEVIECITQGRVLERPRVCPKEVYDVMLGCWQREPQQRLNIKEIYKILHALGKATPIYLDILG
T26 sequence (P23443 whole entry): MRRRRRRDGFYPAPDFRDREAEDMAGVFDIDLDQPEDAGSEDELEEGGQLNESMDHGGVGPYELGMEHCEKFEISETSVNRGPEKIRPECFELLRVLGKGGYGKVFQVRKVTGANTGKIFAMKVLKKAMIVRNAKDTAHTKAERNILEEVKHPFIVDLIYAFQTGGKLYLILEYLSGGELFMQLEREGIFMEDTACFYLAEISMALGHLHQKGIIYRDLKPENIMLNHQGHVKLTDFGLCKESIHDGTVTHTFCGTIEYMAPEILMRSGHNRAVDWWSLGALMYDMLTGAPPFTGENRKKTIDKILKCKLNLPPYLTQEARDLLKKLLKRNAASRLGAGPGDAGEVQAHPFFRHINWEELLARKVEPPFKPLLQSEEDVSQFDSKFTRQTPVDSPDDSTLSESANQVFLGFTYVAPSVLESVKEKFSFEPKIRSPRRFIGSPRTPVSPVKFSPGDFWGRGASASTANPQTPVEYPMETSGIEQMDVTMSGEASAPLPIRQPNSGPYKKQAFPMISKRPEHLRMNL

COc1ccc(-c2cc(C(=O)Nc3cc(-c4c(-c5ccc(F)cc5)noc4C(C)C)ccn3)n(CC3NCC(O)C3O)c2)cc1 (stereo not drawn) [29d]
remaining activity at 1 µM (ACV-RL1): 115% | remaining activity at 1 µM (AMPK-alpha1 aa1-550): 99% | remaining activity at 1 µM (Aurora-B): 96% | remaining activity at 1 µM (BMX): 96% | remaining activity at 1 µM (BTK): 112% | remaining activity at 1 µM (CDK1/CycA2): 102% | remaining activity at 1 µM (CDK2/CycE1): 93% | remaining activity at 1 µM (CDK6/CycD1): 104% | remaining activity at 1 µM (CLK3): 92% | remaining activity at 1 µM (EEF2K): 99% | remaining activity at 1 µM (EGF-R): 108% | remaining activity at 1 µM (EPHA5): 103% | remaining activity at 1 µM (GRK2): 87% | remaining activity at 1 µM (GRK4): 111% | remaining activity at 1 µM (GSG2): 91% | remaining activity at 1 µM (HIPK3): 109% | remaining activity at 1 µM (IKK-beta): 92% | remaining activity at 1 µM (IKK-epsilon): 94% | remaining activity at 1 µM (IRAK1): 91% | remaining activity at 1 µM (ITK): 114% | remaining activity at 1 µM (LIMK2): 98% | remaining activity at 1 µM (MEK1): 90% | remaining activity at 1 µM (MKNK2): 92% | remaining activity at 1 µM (MLK4): 112% | remaining activity at 1 µM [1]: 103% | remaining activity at 1 µM (S6K): 102% | remaining activity at 1 µM (SNARK): 123% | remaining activity at 1 µM (STK39): 110% | remaining activity at 1 µM (TRK-C): 105% | remaining activity at 1 µM (TTBK2): 101%
